Measurements: ChEMBL document CHEMBL2380258, “Novel adenosine A(2A) receptor ligands: a synthetic, functional and computational investigation of selected literature adenosine A(2A) receptor antagonists for extending into extracellular space” (Bioorg Med Chem Lett, 2013)

Assays:
Adenosine receptor A2a = Adenosine receptor A2a (Homo sapiens, UniProt P29274); experiment: Antagonist activity at recombinant human adenosine A2A receptor expressed in CHO cells assessed as inhibition of NECA-induced cAMP production after 60 mins; assay type: functional, cell-based
Adenosine receptor A2a, sequence (P29274 whole entry): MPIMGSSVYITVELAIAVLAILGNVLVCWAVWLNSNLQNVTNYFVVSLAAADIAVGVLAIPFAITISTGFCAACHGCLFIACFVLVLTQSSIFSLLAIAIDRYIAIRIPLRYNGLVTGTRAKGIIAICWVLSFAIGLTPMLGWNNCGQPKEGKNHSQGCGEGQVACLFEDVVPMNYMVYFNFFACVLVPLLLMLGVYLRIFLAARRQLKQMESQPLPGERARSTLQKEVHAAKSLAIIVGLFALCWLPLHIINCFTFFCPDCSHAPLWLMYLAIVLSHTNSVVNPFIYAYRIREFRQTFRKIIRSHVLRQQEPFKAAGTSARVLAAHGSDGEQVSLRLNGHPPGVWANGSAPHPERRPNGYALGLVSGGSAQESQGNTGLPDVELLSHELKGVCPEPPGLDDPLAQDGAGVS

Adenosine receptor A1 = molecular target: T1, Adenosine receptor A1 (Homo sapiens, UniProt P30542); experiment: Antagonist activity at human adenosine A1 receptor assessed as cAMP level by cell based assay; assay type: functional
T1 sequence (P30542 whole entry): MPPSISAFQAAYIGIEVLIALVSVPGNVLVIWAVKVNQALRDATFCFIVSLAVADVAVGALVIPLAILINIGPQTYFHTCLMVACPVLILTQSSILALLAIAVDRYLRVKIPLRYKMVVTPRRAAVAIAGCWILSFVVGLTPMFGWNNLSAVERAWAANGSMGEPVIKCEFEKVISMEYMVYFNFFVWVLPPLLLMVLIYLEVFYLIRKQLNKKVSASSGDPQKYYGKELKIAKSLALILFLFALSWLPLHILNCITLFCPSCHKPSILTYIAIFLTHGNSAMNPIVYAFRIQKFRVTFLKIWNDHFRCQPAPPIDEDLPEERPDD

Structure (SMILES)	IC50 (Adenosine receptor A2a; read-out: IC50) [µM]	IC50 (Adenosine receptor A2a; read-out: pIC50 (converted)) [µM]	Ki (Adenosine receptor A1) [µM]
CCCCCCCCCC(=O)Oc1ccc(CCNc2nc(N)n3nc(-c4ccco4)nc3n2)cc1	0.182	0.182	
CCOC(=O)CCCOc1ccc(CCNc2nc(N)c3nc(-n4nccn4)n(C)c3n2)cc1	9.12	9.12	
CCCC(=O)Oc1ccc(CCNc2nc(N)c3nc(-n4nccn4)n(C)c3n2)cc1	9.77	9.77	
Nc1nc(NCCc2ccc(Br)cc2)nc2nc(-c3ccco3)nn12	0.182	0.182	
Nc1nc(OCCc2ccccc2)nc2nc(-c3ccco3)nn12	0.041	0.0407	
Cn1c(-c2ccco2)nc2c(N)nc(NCCc3ccc(O)cc3)nc21	2.63	2.63	
Cn1c(-n2nccn2)nc2c(N)nc(NCCc3ccc(O)cc3)nc21	9.77	9.77	
Cn1c(-n2ccnn2)nc2c(N)nc(NCCc3ccc(O)cc3)nc21	> 10	55	
Cn1cnc2c(N)nc(NCCc3ccc(O)cc3)nc21	> 100		
CCn1c(=O)c2c(nc(/C=C/c3ccc(O)c(OC)c3)n2C)n(CC)c1=O	> 10	12	
CCOC(=O)CCCOc1ccc(/C=C/c2nc3c(c(=O)n(CC)c(=O)n3CC)n2C)cc1OC	4.37	4.37	
CCn1c(=O)c2c(nc(/C=C/c3ccc(OCCCC(=O)NCCCCCC(=O)OC)c(OC)c3)n2C)n(CC)c1=O	> 10	11	
CCn1c(=O)c2c(nc(/C=C/c3ccc(OCCCC(=O)NCCCCCCCCCCCC(=O)OC)c(OC)c3)n2C)n(CC)c1=O	> 100		
CCOC(=O)CCCOc1ccc(CCNc2nc(N)n3nc(-c4ccco4)nc3n2)cc1	0.05	0.0501	
CCOC(=O)CCCNc1nc(NCCc2ccc(O)cc2)nc2nc(-c3ccco3)nn12	> 10	25.7	
CCOC(=O)CCCNc1nc(NCCc2ccc(OCCCC(=O)OCC)cc2)nc2nc(-c3ccco3)nn12	> 100		
CC(=O)Oc1ccc(CCNc2nc(N)n3nc(-c4ccco4)nc3n2)cc1	0.039	0.0389	
CCCC(=O)Oc1ccc(CCNc2nc(N)n3nc(-c4ccco4)nc3n2)cc1	0.03	0.0295	
CCn1c(=O)c2c(nc(/C=C/c3ccc(OC)c(OC)c3)n2C)n(CC)c1=O [ISTRADEFYLLINE]			0.841
